Reference: patent US20230407243A1, “GENETIC PLATFORM TO INVESTIGATE THE FUNCTIONS OF BACTERIAL DRUG EFFLUX PUMPS” (priority 2022, published 2023)
Like-named read-outs stand apart in the source and are kept apart here.

Experiments:
Format in all cases: cell-based, Escherichia coli
[1] = tested on: EKO-35 araC::acrBD408A; assay: MIC susceptibility profiling, efflux platform; details: for Fold change of MICs: EKO-35 araC::acrBD408A compared to EKO-35
In short: (§1)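 Growth inhibition was scored by OD600, with readings taken before incubation subtracted from those after. Cells were grown in MHB II at 37 °C for 18 h with aeration, against duplicate 2-fold compound series and DMSO-only wells. Inoculum: PBS suspension at OD600 ~1.0 diluted 1/2000.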

[2] = tested on: EKO-35 araC::acrB; assay: MIC susceptibility profiling, efflux platform; details: for Fold change of MICs: EKO-35 araC::acrB compared to EKO-35
In short: as §1

[3] = tested on: EKO-35 araC::acrD; assay: MIC susceptibility profiling, efflux platform; details: for Fold change of MICs: EKO-35 araC::acrD compared to EKO-35
In short: as §1

[4] = tested on: EKO-35 araC::acrEF; assay: MIC susceptibility profiling, efflux platform; details: for Fold change of MICs: EKO-35 araC::acrEF compared to EKO-35
In short: as §1

[5] = tested on: EKO-35 araC::emrAB; assay: MIC susceptibility profiling, efflux platform; details: for Fold change of MICs: EKO-35 araC::emrAB compared to EKO-35
In short: as §1

[6] = tested on: EKO-35 araC::emrKY; assay: MIC susceptibility profiling, efflux platform; details: for Fold change of MICs: EKO-35 araC::emrKY compared to EKO-35
In short: as §1

[7] = tested on: EKO-35 araC::macAB; assay: MIC susceptibility profiling, efflux platform; details: for Fold change of MICs: EKO-35 araC::macAB compared to EKO-35
In short: as §1

[8] = tested on: EKO-35 araC::mexCD (MexCD from P. aeruginosa); assay: MIC susceptibility profiling, efflux platform; details: for Fold change of MICs: EKO-35 araC::mexCD compared to EKO-35
In short: as §1

[9] = tested on: EKO-35 acrBD408A; details: EKO-35 acrBD408A; for PABN MICa Alone: PAβN alone, one value per checkerboard
Description: (§2) Synergy measurement using checkerboard analysis was performed in 96-well microtiter plates using the microdilution broth method, according to CLSI guidelines (Patel J. B., 2015). The cell inocula were prepared using the colony resuspension method. The minimum inhibitory concentrations (MICs) were defined as the lowest concentration that provided no growth, as determined by measurement of the OD600nm using a Synergy H1 microplate reader (BioTek). Susceptibility testing was performed in MHB II with a final volume of 100 μL. PAI3N (Bachem Americas) was solubilized in MHB II. […] Solvent controls were included in each plate.
(§3) The Fractional Inhibitory Concentration Index (FICI) was used to assess the synergy of PAI3N in combination with different antibiotics. The FICI represents the ΣFIC of each drug. The FICI for each drug was calculated using the following formula: FICI=FICA+FICB=(CA/MICA)+(CB/MICB). Where MICA and MICB are the MICs of drugs A (PAI3N/NMP) and B (antibiotic) alone, and CA and CB are the MICs of the drugs in combination. The effects of PAβN or NMP in combination with antibiotics were classified as: synergistic (FICI<0.5), additive (FICI>0.5-1.0), indifferent (FICI>1.0-2.0), and antagonistic (FICI>2.0). Fold increases in resistance provided by efflux pumps were calculated by dividing the MIC values of strains expressing efflux pumps by the MIC value of EKO-35.

[10] = tested on: EKO-35; details: for PABN MICa Alone / PABN MICa Combined: EKO-35; for PABN MICa Alone: PAβN alone, one value per checkerboard
Description: as §2, §3

[11] = tested on: ΔtolC-Pore; details: ΔtolC Pore; for PABN MICa Alone: PAβN alone, one value per checkerboard
Description: as §2, §3

[12] = tested on: ΔtolC; details: ΔtolC; for PABN MICa Alone: PAβN alone, one value per checkerboard
Description: as §2, §3

[13] = Table 13B, non-porinated, technical duplicate
[14] = Table 13A, non-porinated, technical duplicate

Question: `CN[C@H](CC(C)C)C(=O)N[C@H]1C(=O)N[C@@H](CC(N)=O)C(=O)N[C@H]2C(=O)N[C@H]3C(=O)N[C@H](C(=O)N[C@H](C(=O)O)c4cc(O)cc(O)c4-c4cc3ccc4O)[C@H](O)c3ccc(c(Cl)c3)Oc3cc2cc(c3O[C@@H]2O[C@H](CO)[C@@H](O)[C@H](O)[C@H]2O[C@H]2C[C@](C)(N)[C@H](O)[C@H](C)O2)Oc2ccc(cc2Cl)[C@H]1O` [vancomycin] was tested. Which “Fold change of MICs” value [1] did it give?
Answer: Its value is 1 fold.

Question: What about the MIC ([1]; Escherichia coli, Table 13B, non-porinated, technical duplicate, read-out: Minimum Inhibitory Concentration, EKO-35 araC::acrBD408A) of the same molecule?
Answer: The MIC was 200 µg/mL.

Question: And the “Fold change of MICs” value [2]?
Answer: Its value is 1 fold.

Question: And the MIC ([2]; Escherichia coli, Table 13A, non-porinated, technical duplicate, read-out: Minimum Inhibitory Concentration, EKO-35 araC::acrB)?
Answer: Its MIC is 200 µg/mL.

Question: What about the “Fold change of MICs” value [3] of the same molecule?
Answer: The value was 1 fold.

Question: What about the MIC ([3]; Escherichia coli, Table 13A, non-porinated, technical duplicate, read-out: Minimum Inhibitory Concentration, EKO-35 araC::acrD) of the same molecule?
Answer: The MIC was 200 µg/mL.

Question: What about the “Fold change of MICs” value [4] of the same molecule?
Answer: The value was 1 fold.

Question: And the MIC ([4]; Escherichia coli, Table 13A, non-porinated, technical duplicate, read-out: Minimum Inhibitory Concentration, EKO-35 araC::acrEF)?
Answer: The MIC was 200 µg/mL.

Question: And the “Fold change of MICs” value [5]?
Answer: The value was 1 fold.

Question: What about the MIC ([5]; Escherichia coli, Table 13B, non-porinated, technical duplicate, read-out: Minimum Inhibitory Concentration, EKO-35 araC::emrAB) of the same molecule?
Answer: Its MIC is 200 µg/mL.

Question: And the “Fold change of MICs” value [6]?
Answer: The value was 1 fold.

Question: What about the MIC ([6]; Escherichia coli, Table 13B, non-porinated, technical duplicate, read-out: Minimum Inhibitory Concentration, EKO-35 araC::emrKY) of the same molecule?
Answer: Its MIC is 200 µg/mL.

Question: And the “Fold change of MICs” value [7]?
Answer: Its value is 1 fold.

Question: What about the MIC ([7]; Escherichia coli, Table 13B, non-porinated, technical duplicate, read-out: Minimum Inhibitory Concentration, EKO-35 araC::macAB) of the same molecule?
Answer: Its MIC is 200 µg/mL.

Question: And the “Fold change of MICs” value [8]?
Answer: The value was 1 fold.

Question: What about the MIC ([8]; Table 13B, non-porinated, technical duplicate, read-out: Minimum Inhibitory Concentration, EKO-35 araC::mexCD) of the same molecule?
Answer: The MIC was 200 µg/mL.

Question: With benzalkonium chloride as the molecule, how does the “Fold change of MICs” value [1] read?
Answer: Its value is 1 fold.

Question: What about the “Minimum Inhibitory Concentration, EKO-35 araC::acrBD408A” value [1, 13] of the same molecule?
Answer: The value was 0.391 µg/mL.

Question: What about the “Fold change of MICs” value [2] of the same molecule?
Answer: Its value is 32 fold.

Question: What about the “Minimum Inhibitory Concentration, EKO-35 araC::acrB” value [2, 14] of the same molecule?
Answer: Its value is 12.5 µg/mL.

Question: What about the “Fold change of MICs” value [3] of the same molecule?
Answer: The value was 1 fold.

Question: And the “Minimum Inhibitory Concentration, EKO-35 araC::acrD” value [3, 14]?
Answer: The value was 0.391 µg/mL.

Question: And the “Fold change of MICs” value [4]?
Answer: The value was 4 fold.

Question: And the “Minimum Inhibitory Concentration, EKO-35 araC::acrEF” value [4, 14]?
Answer: Its value is 1.563 µg/mL.

Question: And the “Fold change of MICs” value [5]?
Answer: Its value is 1 fold.

Question: What about the “Minimum Inhibitory Concentration, EKO-35 araC::emrAB” value [5, 13] of the same molecule?
Answer: The value was 0.391 µg/mL.

Question: What about the “Fold change of MICs” value [6] of the same molecule?
Answer: The value was 1 fold.

Question: What about the “Minimum Inhibitory Concentration, EKO-35 araC::emrKY” value [6, 13] of the same molecule?
Answer: Its value is 0.391 µg/mL.

Question: And the “Fold change of MICs” value [7]?
Answer: Its value is 1 fold.

Question: And the “Minimum Inhibitory Concentration, EKO-35 araC::macAB” value [7, 13]?
Answer: The value was 0.391 µg/mL.

Question: And the “Fold change of MICs” value [8]?
Answer: The value was 2 fold.

Question: And the “Minimum Inhibitory Concentration, EKO-35 araC::mexCD” value [8, 13]?
Answer: The value was 0.781 µg/mL.

Question: Which results are given for deoxycholate?
Answer: Fold change of MICs [1]: 1 fold; Minimum Inhibitory Concentration, EKO-35 araC::acrBD408A [1, 13]: 375 µg/mL; Fold change of MICs [2]: 4 fold; Minimum Inhibitory Concentration, EKO-35 araC::acrB [2, 14]: 1500 µg/mL; efflux pump-mediated resistance vs EKO-35 ([3]; AcrD): confirmed; Fold change of MICs [3]: 4 fold; Minimum Inhibitory Concentration, EKO-35 araC::acrD [3, 14]: 1500 µg/mL; Fold change of MICs [4]: 4 fold; Minimum Inhibitory Concentration, EKO-35 araC::acrEF [4, 14]: 1500 µg/mL; Fold change of MICs [5]: 4 fold; Minimum Inhibitory Concentration, EKO-35 araC::emrAB [5, 13]: 1500 µg/mL; Fold change of MICs [6]: 1 fold; efflux pump-mediated resistance vs EKO-35 ([6]; EmrKY): could not substantiate; Minimum Inhibitory Concentration, EKO-35 araC::emrKY [6, 13]: 375 µg/mL; Fold change of MICs [7]: 1 fold; Minimum Inhibitory Concentration, EKO-35 araC::macAB [7, 13]: 187.5 µg/mL; Fold change of MICs [8]: 4 fold; Minimum Inhibitory Concentration, EKO-35 araC::mexCD [8, 13]: 1500 µg/mL

Question: Which results are given for “phenylalanine-arginine-β-naphthylamide [PAβN]”?
Answer: PABN MICa Alone [9]: 64 µg/mL; PABN MICa Alone ([9]; listed as PABN): 128 µg/mL; PABN MICa Combined ([9]; with Ciprofloxacin): 8 µg/mL; PABN MICa Combined ([9]; with Erythromycin): 8 µg/mL; PABN MICa Combined ([9]; with Fusidic Acid): 8 µg/mL; PABN MICa Combined ([9]; with Linezolid): 32 µg/mL; PABN MICa Combined ([9]; with Novobiocin): 8 µg/mL; PABN MICa Combined ([9]; with Oxacillin): 16 µg/mL; PABN MICa Alone [10]: 64 µg/mL; PABN MICa Alone ([10]; listed as PABN): 128 µg/mL; PABN MICa Combined ([10]; with Ciprofloxacin): 4 µg/mL; PABN MICa Combined ([10]; with Erythromycin): 8 µg/mL; PABN MICa Combined ([10]; with Fusidic Acid): 16 µg/mL; PABN MICa Combined ([10]; with Linezolid): 32 µg/mL; PABN MICa Combined ([10]; with Novobiocin): 8 µg/mL; PABN MICa Combined ([10]; with Oxacillin): 4 µg/mL; susceptibility to the efflux pump inhibitor alone, efflux-deficient strains vs wild-type ([10]; efflux-deficient strains EKO-35, EKO-35 acrBD408A, ΔtolC): exhibits antibacterial activity, which is enhanced upon efflux inactivation; PABN MICa Alone [11]: 64 µg/mL; PABN MICa Alone ([11]; listed as PABN): 128 µg/mL; PABN MICa Combined ([11]; with Ciprofloxacin): 64 µg/mL; PABN MICa Combined ([11]; with Erythromycin): 16 µg/mL; PABN MICa Combined ([11]; with Fusidic Acid): 32 µg/mL; PABN MICa Combined ([11]; with Linezolid): 64 µg/mL; PABN MICa Combined ([11]; with Novobiocin): 32 µg/mL; PABN MICa Combined ([11]; with Oxacillin): 64 µg/mL; PABN MICa Alone [12]: 64 µg/mL; PABN MICa Alone ([12]; listed as PABN): 128 µg/mL; PABN MICa Combined ([12]; with Ciprofloxacin): 32 µg/mL; PABN MICa Combined ([12]; with Erythromycin): 8 µg/mL; PABN MICa Combined ([12]; with Fusidic Acid): 16 µg/mL; PABN MICa Combined ([12]; with Linezolid): 64 µg/mL; PABN MICa Combined ([12]; with Novobiocin): 16 µg/mL; PABN MICa Combined ([12]; with Oxacillin): 8 µg/mL
